Measurements from PubChem BioAssay AID1259407 (Chemical Carcinogenesis Research Information System (CCRIS), 2018).
Calls of active or inactive are those of the source. No rule for the calls is given here.

Tested on: CCRIS mutagenicity, Ames/micronucleus/aberration tests
Assay: CCRIS mutagenicity studies

B#B was tested, and the mutagenic call (Test System: AMES SALMONELLA TYPHIMURIUM, Strain/Indicator: TA98, Metabolic Activation: HAMSTER, LIVER, S-9, AROCLOR 1254 (10%), Method: PREINCUBATION) was “inactive; negative”, the mutagenic call (Test System: AMES SALMONELLA TYPHIMURIUM, Strain/Indicator: TA98, Metabolic Activation: NONE, Method: GAS EXPOSURE) was “active; positive” and the mutagenic call (Test System: AMES SALMONELLA TYPHIMURIUM, Strain/Indicator: TA98, Metabolic Activation: NONE, Method: PREINCUBATION) was “inactive; negative”. For the same molecule, the mutagenic call (Test System: AMES SALMONELLA TYPHIMURIUM, Strain/Indicator: TA98, Metabolic Activation: RAT LIVER S-9, PHENOBARBITAL AND BETA-NAPHTHOFLAVONE, Method: GAS EXPOSURE) was “active; positive”, the mutagenic call (Test System: AMES SALMONELLA TYPHIMURIUM, Strain/Indicator: TA98, Metabolic Activation: RAT, LIVER, S-9, AROCLOR 1254 (10%), Method: PREINCUBATION) was “inactive; negative” and the mutagenic call (Test System: AMES SALMONELLA TYPHIMURIUM, Strain/Indicator: TA98, Metabolic Activation: RAT, LIVER, S-9, PHENOBARBITAL AND 5,6-BENZOFLAVONE, Method: GAS EXPOSURE) was “active; positive”. For the same molecule, the mutagenic call (Test System: AMES SALMONELLA TYPHIMURIUM, Strain/Indicator: TA100, Metabolic Activation: HAMSTER, LIVER, S-9, AROCLOR 1254 (10%), Method: PREINCUBATION) was “inactive; negative”, the mutagenic call (Test System: AMES SALMONELLA TYPHIMURIUM, Strain/Indicator: TA100, Metabolic Activation: NONE, Method: PREINCUBATION) was “inactive; negative” and the mutagenic call (Test System: AMES SALMONELLA TYPHIMURIUM, Strain/Indicator: TA100, Metabolic Activation: RAT LIVER S-9, PHENOBARBITAL AND BETA-NAPHTHOFLAVONE, Method: GAS EXPOSURE) was “active; positive”. The mutagenic call (Test System: AMES SALMONELLA TYPHIMURIUM, Strain/Indicator: TA100, Metabolic Activation: RAT, LIVER, S-9, AROCLOR 1254 (10%), Method: PREINCUBATION) was “inactive; negative”, the mutagenic call (Test System: AMES SALMONELLA TYPHIMURIUM, Strain/Indicator: TA100, Metabolic Activation: RAT, LIVER, S-9, PHENOBARBITAL AND 5,6-BENZOFLAVONE, Method: GAS EXPOSURE) was “active; positive” and the mutagenic call (Test System: AMES SALMONELLA TYPHIMURIUM, Strain/Indicator: TA1535, Metabolic Activation: HAMSTER, LIVER, S-9, AROCLOR 1254 (10%), Method: PREINCUBATION) was “inactive; negative”. For the same molecule, the mutagenic call (Test System: AMES SALMONELLA TYPHIMURIUM, Strain/Indicator: TA1535, Metabolic Activation: NONE, Method: GAS EXPOSURE) was “inactive; negative”, the mutagenic call (Test System: AMES SALMONELLA TYPHIMURIUM, Strain/Indicator: TA1535, Metabolic Activation: NONE, Method: PREINCUBATION) was “inactive; negative” and the mutagenic call (Test System: AMES SALMONELLA TYPHIMURIUM, Strain/Indicator: TA1535, Metabolic Activation: RAT LIVER S-9, PHENOBARBITAL AND BETA-NAPHTHOFLAVONE, Method: GAS EXPOSURE) was “inactive; negative”. The mutagenic call (Test System: AMES SALMONELLA TYPHIMURIUM, Strain/Indicator: TA1535, Metabolic Activation: RAT, LIVER, S-9, AROCLOR 1254 (10%), Method: PREINCUBATION) was “inactive; negative”, the mutagenic call (Test System: AMES SALMONELLA TYPHIMURIUM, Strain/Indicator: TA1535, Metabolic Activation: RAT, LIVER, S-9, PHENOBARBITAL AND 5,6-BENZOFLAVONE, Method: GAS EXPOSURE) was “inactive; negative” and the mutagenic call (Test System: AMES SALMONELLA TYPHIMURIUM, Strain/Indicator: TA1537, Metabolic Activation: HAMSTER, LIVER, S-9, AROCLOR 1254 (10%), Method: PREINCUBATION) was “inactive; negative”. The mutagenic call (Test System: AMES SALMONELLA TYPHIMURIUM, Strain/Indicator: TA1537, Metabolic Activation: NONE, Method: GAS EXPOSURE) was “inactive; negative”, the mutagenic call (Test System: AMES SALMONELLA TYPHIMURIUM, Strain/Indicator: TA1537, Metabolic Activation: NONE, Method: PREINCUBATION) was “inactive; negative” and the mutagenic call (Test System: AMES SALMONELLA TYPHIMURIUM, Strain/Indicator: TA1537, Metabolic Activation: RAT LIVER S-9, PHENOBARBITAL AND BETA-NAPHTHOFLAVONE, Method: GAS EXPOSURE) was “inactive; negative”. For the same molecule, the mutagenic call (Test System: AMES SALMONELLA TYPHIMURIUM, Strain/Indicator: TA1537, Metabolic Activation: RAT, LIVER, S-9, AROCLOR 1254 (10%), Method: PREINCUBATION) was “inactive; negative”, the mutagenic call (Test System: AMES SALMONELLA TYPHIMURIUM, Strain/Indicator: TA1537, Metabolic Activation: RAT, LIVER, S-9, PHENOBARBITAL AND 5,6-BENZOFLAVONE, Method: GAS EXPOSURE) was “inactive; negative” and the mutagenic call (Test System: E. COLI, Strain/Indicator: WP2 UVRA, Metabolic Activation: NONE, Method: GAS EXPOSURE) was “inactive; negative”. The mutagenic call (Test System: E. COLI, Strain/Indicator: WP2 UVRA, Metabolic Activation: RAT, LIVER, S-9, PHENOBARBITAL AND 5,6-BENZOFLAVONE, Method: GAS EXPOSURE) was “active; positive”, the mutagenic call (Test System: E.COLI, Strain/Indicator: WP2UVRA, Metabolic Activation: NONE, Method: GAS EXPOSURE) was “inactive; negative” and the mutagenic call (Test System: E.COLI, Strain/Indicator: WP2UVRA, Metabolic Activation: RAT LIVER S-9, PHENOBARBITAL AND BETA-NAPHTHOFLAVONE, Method: GAS EXPOSURE) was “active; positive”.

In the case of Cn1cnc2c1c(=O)[nH]c(=O)n2C, the mutagenic call (Test System: AMES SALMONELLA TYPHIMURIUM, Strain/Indicator: TA97A, Metabolic Activation: NONE, Method: STANDARD PLATE) is reported as “inactive; negative”, the mutagenic call (Test System: AMES SALMONELLA TYPHIMURIUM, Strain/Indicator: TA97A, Metabolic Activation: RAT LIVER S-9, Method: STANDARD PLATE) is reported as “inactive; negative” and the mutagenic call (Test System: AMES SALMONELLA TYPHIMURIUM, Strain/Indicator: TA98, Metabolic Activation: NONE, Method: STANDARD PLATE) is reported as “inactive; negative”. The mutagenic call (Test System: AMES SALMONELLA TYPHIMURIUM, Strain/Indicator: TA98, Metabolic Activation: RAT, LIVER, S-9, AROCLOR 1254, Method: STANDARD PLATE) was “inactive; negative”, the mutagenic call (Test System: AMES SALMONELLA TYPHIMURIUM, Strain/Indicator: TA100, Metabolic Activation: NONE, Method: STANDARD PLATE) was “inactive; negative” and the mutagenic call (Test System: AMES SALMONELLA TYPHIMURIUM, Strain/Indicator: TA100, Metabolic Activation: RAT LIVER S-9, Method: STANDARD PLATE) was “inactive; negative”. The mutagenic call (Test System: AMES SALMONELLA TYPHIMURIUM, Strain/Indicator: TA100, Metabolic Activation: RAT, LIVER, S-9, AROCLOR 1254, Method: STANDARD PLATE) was “inactive; negative”, the mutagenic call (Test System: AMES SALMONELLA TYPHIMURIUM, Strain/Indicator: TA102, Metabolic Activation: NONE, Method: STANDARD PLATE) was “inactive; negative” and the mutagenic call (Test System: AMES SALMONELLA TYPHIMURIUM, Strain/Indicator: TA102, Metabolic Activation: RAT LIVER S-9, Method: STANDARD PLATE) was “inactive; negative”. For the same molecule, the mutagenic call (Test System: AMES SALMONELLA TYPHIMURIUM, Strain/Indicator: TA104, Metabolic Activation: NONE, Method: STANDARD PLATE) was “inactive; negative”, the mutagenic call (Test System: AMES SALMONELLA TYPHIMURIUM, Strain/Indicator: TA104, Metabolic Activation: RAT LIVER S-9, Method: STANDARD PLATE) was “inactive; negative” and the mutagenic call (Test System: AMES SALMONELLA TYPHIMURIUM, Strain/Indicator: TA1535, Metabolic Activation: NONE, Method: STANDARD PLATE) was “inactive; negative”. The mutagenic call (Test System: AMES SALMONELLA TYPHIMURIUM, Strain/Indicator: TA1535, Metabolic Activation: RAT, LIVER, S-9, AROCLOR 1254, Method: STANDARD PLATE) was “inactive; negative”, the mutagenic call (Test System: AMES SALMONELLA TYPHIMURIUM, Strain/Indicator: TA1537, Metabolic Activation: NONE, Method: STANDARD PLATE) was “inactive; negative” and the mutagenic call (Test System: AMES SALMONELLA TYPHIMURIUM, Strain/Indicator: TA1537, Metabolic Activation: RAT, LIVER, S-9, AROCLOR 1254, Method: STANDARD PLATE) was “inactive; negative”. For the same molecule, the mutagenic call (Test System: AMES SALMONELLA TYPHIMURIUM, Strain/Indicator: TA1538, Metabolic Activation: NONE, Method: STANDARD PLATE) was “inactive; negative”, the mutagenic call (Test System: AMES SALMONELLA TYPHIMURIUM, Strain/Indicator: TA1538, Metabolic Activation: RAT, LIVER, S-9, AROCLOR 1254, Method: STANDARD PLATE) was “inactive; negative” and the mutagenic call (Test System: MOUSE LYMPHOMA, Strain/Indicator: L5178Y (TK+/TK-), Metabolic Activation: NONE, Method: SUSPENSION/PLATE) was “active; positive”. The mutagenic call (Test System: MOUSE LYMPHOMA, Strain/Indicator: L5178Y (TK+/TK-), Metabolic Activation: RAT, LIVER, S-9, AROCLOR 1254, Method: STANDARD PLATE) was “active; positive”.
